Results as given in publication PMC5772984 (International journal for parasitology, 2017).
Like-named read-outs stand apart in the source and are kept apart here.

Tests used:
[1] = test system: UGA1 N-luciferase expressing C. parvum; experiment: Nluc expressing C. parvum in vitro growth inhibition in infected HCT-8 cells; type: cell-based; settings: Cryptosporidium parvum
[2] = test system: Cryptosporidium; settings: 1–5 year old malnourished children; ref Amadi et al., 2002; cited from earlier work
[3] = test system: C. parvum; settings: Cryptosporidium parvum
[4] = test system: Tufts University TU502 C. hominis; settings: Cryptosporidium hominis, HCT-8
[5] = test system: Cryptosporidium parvum; settings: oral dosing; ref Hulverson et al., 2017; cited from earlier work
[6] = molecular target: UGA1 N-luciferase expressing C. parvum; settings: read-out: EC50 in vitro against C. parvum; ref Hulverson et al., 2017; cited from earlier work
[7] = test system: CRL-8155 cells; settings: ref Hulverson et al., 2017; cited from earlier work
[8] = test system: HepG2 cells; settings: ref Hulverson et al., 2017; cited from earlier work

SMILES | EC50 [1] | Effectiveness in children with cryptosporidiosis [2] | EC50 ([3]; HCT-8, Bunch Grass Farm C. parvum, high-content imaging) | EC50 ([3]; HCT-8, University of Arizona C. parvum) | EC50 [4] | Efficacy when orally dosed in vivo in mice [5] | EC50 [6] | In vitro cytotoxicity [7] | In vitro cytotoxicity [8]
CC(=O)Oc1ccccc1C(=O)Nc1ncc([N+](=O)[O-])s1 [Nitazoxanide, nitazoxanide] | 3100 nM | approximately 30% | 1900 nM | 1680 nM | 2780 nM |  |  |  | 
CCOc1ccc2cc(-c3nn(CC4CCNCC4)c4ncnc(N)c34)ccc2n1 [BKI 1318] |  |  |  |  |  | lacked efficacy | 3200 nM | no toxicity | no toxicity
